Where two headings read alike, the source gives them in different places.
Assays:
S. pyogenes strain JRS4 [1] = experiment: Determination of subbacteriostatic concentrations (growth curve, OD600); assay type: cell-based, Streptococcus pyogenes; conditions: minimum dose at which growth curve plateaus at OD600 <1.0 after 4-h incubation at 37 °C, THY, added at OD600 0.4
Description: (§1) S. pyogenes strain JRS4 (M6^+ F1^+) was grown in Todd-Hewitt broth supplemented with 0.3% yeast extract (THY) at 37 °C.
S. pyogenes were grown in THY to an OD600 of 0.4 (exponential phase) at 37 °C and then added a solution of antibiotic of varying concentration. The culture mixture was further incubated for 4 h at 37 °C. Subbacteriostatic concentration in this study is the minimum dose of antibiotic that makes growth curve reach a plateau at OD600 of <1.0 after the 4-h incubation. In the absence of antibiotics, GAS cells grew up to OD600 of approximately 1.6. Subbacteriostatic concentrations were determined for each antibiotic, and mode-of-action analyses were performed at these concentrations (Figs 2, 3, 4, 5, 6 and 7).

S. pyogenes strain JRS4 [2] = experiment: Imaging of peripheral growth by FDAA pre-labeling in D-cycloserine/oxacillin-treated cells; assay type: cell-based, Streptococcus pyogenes; conditions: FDAA pre-labeling 1 h, then antibiotic 3 h
Excerpt: The observed enlargement of cells implied that cell wall synthesis could proceed, at least partly, in the presence of these antibiotics at their subbacteriostatic concentrations. We therefore studied the relationship between peripheral growth length and axial length for cells via dual-color staining. Nile red was used to stain the bacterial cell membrane, and the fluorescent D-amino acid (FDAA) labeling[10]–[12] was employed for old cell wall (preexisting prior to antibiotic treatment). In the presence of antibiotic, peripheral growth length was measured as a gap between the old (stained) regions of the preexisting cell wall (Fig. 5A and B).
Bacterial cells grown in THY to an OD600 of 0.2 (exponential phase) at 37 °C, and 100-μL aliquots of culture mixture were taken (Fig. 5). FDAA solution (final concentration = 1 mM; FL-D-Lys for Fig. 5A and E, tetramethylrhodamine- D-Lys for Fig. 5D) was added, and the mixture was incubated for 1 h at 37 °C in the dark. The mixture was centrifuged (12,000 rpm, 2 min, 4 °C), the supernatant was removed, and the pellet was washed with PBS buffer thrice to remove unreacted FDAA. Cells were re-suspended in 100-μL THY and incubated at 37 °C in the dark with antibiotics for 2.5 h. […]

S. pyogenes strain JRS4 [3] = experiment: Live cell labeling with sortase A substrate in the presence of antibiotics: phenotype and cell size distribution; assay type: cell-based, Streptococcus pyogenes; conditions: for cells with one or more completed septa among cells with multiple division sites: n = 55 (CBPV), 114 (flavomycin), 105 (ΔNCBPV) cells
Excerpt: Streptococcal cell wall synthesis consists of cylindrical peripheral synthesis and septal synthesis (Fig. 1A). A study using Streptococcus pneumoniae illustrated that the serine-threonine kinase StkP controls the switch from peripheral synthesis to septal synthesis. Splitting of the septum (cell separation) is then mediated by the action of autolysin. We labeled the GAS cell wall using the sortase method in the absence of antibiotics, and the observed labeling patterns of GAS were classified into three phenotypes (Fig. 1A–C). Phenotype A cells are newly divided cells without specific fluorescent labeling. Phenotype B cells are in the peripheral growth stage. A characteristic two-elongated-dot image or an open ring corresponds to peripheral growth near the bacterial division site. Phenotype C cells are in the septal growth stage, and the dividing septum is fluorescently stained. The distribution (%) of phenotypes A, B, and C among cells was 37 ± 2, 47 ± 2, and 16 ± 1, respectively, in log-phase GAS. Data represent the mean ± sem (n = 3). Subsequently, we constructed a histogram of each phenotype population as a function of bacterial cell length, as defined in Fig. 1C (orange, Fig. 1D). The subpopulation of cells with a specific phenotype is overlaid on the total cell size distribution (blue). […] The histograms also illustrate that cells grow from phenotype A, through phenotype B, to phenotype C (followed by cell separation), confirming that peripheral growth precedes septal growth in GAS. We speculated that the changes of this histogram would provide information on antibiotic modes of action.
as §1
Bacterial cells grown in THY to an OD600 of 0.35–0.4 (exponential phase) at 37 °C were exposed to antibiotics and incubated for 1 h, and 100-μL aliquots of culture mixture were taken and added to a solution of sortase substrate (FL-KLPETG-NH2, final concentration = 1 mM). After incubation for 2.5 h at 37 °C in the dark, Nile Red (10 μg/mL) and DAPI (1 μg/mL) were added. The mixture was allowed to stand for 30 min and then centrifuged (12,000 rpm, 2 min, 4 °C). The supernatant was removed, and the pellet was washed thrice with PBS buffer to remove unreacted sortase substrate. Cells were re-suspended in PBS buffer, mounted on a glass slide, and examined by fluorescent microscopy. Images were analyzed manually using ImageJ software (ver. 1.50). Sets of axial- and equatorial-length were also recorded for each cell. At least 200 cells were analyzed in each analysis. All experiments were performed at least thrice, and representative results are shown.

gram-positive strains = conditions: ref many studies; cited from earlier work
[4] = antibiotic at subbacteriostatic conc., mean ± sem, n = 3
[5] = antibiotic at subbacteriostatic conc.

| Compound | subbacteriostatic concentration (S. pyogenes strain JRS4 [1]) | peripheral growth/axial length relationship (dot blot analysis) (S. pyogenes strain JRS4 [2]) | proportion of cells, phenotype A (no active cell wall synthesis) (S. pyogenes strain JRS4 [3]; [4]) | proportion of cells, phenotype B (peripheral growth) (S. pyogenes strain JRS4 [3]; [4]) | proportion of cells, phenotype C (septal growth) (S. pyogenes strain JRS4 [3]; [4]) | proportion of cells, phenotype D (multiple septa in an elongated cell) (S. pyogenes strain JRS4 [3]; [4]) | cells with one or more completed septa among cells with multiple division sites (S. pyogenes strain JRS4 [3]; [5]) | proportion of cells, phenotype D′ (multiple peripheral growth sites, axially elongated) (S. pyogenes strain JRS4 [3]; [4]) | antibacterial activity (gram-positive strains) | proportion of cells, phenotype B (peripheral growth) (S. pyogenes strain JRS4 [3]) | proportion of cells, phenotype C (septal growth) (S. pyogenes strain JRS4 [3]) | proportion of cells, phenotype D′ (multiple peripheral growth sites, axially elongated) (S. pyogenes strain JRS4 [3]) |
| --- | --- | --- | --- | --- | --- | --- | --- | --- | --- | --- | --- | --- |
| N[C@@H]1CON=C1O [D-Cycloserine] | 100 µg/mL | considerably larger than that of oxacillin-treated cells | 25 ± 6% | 68 ± 7% | 2 ± 1% | 5 ± 1% |  |  |  |  |  |  |
| Cc1onc(-c2ccccc2)c1C(=O)N[C@@H]1C(=O)N2[C@@H]1SC(C)(C)[C@@H]2C(=O)O [Oxacillin] | 4 µg/mL | peripheral growth barely contributed to cell enlargement | 19 ± 4% | 60 ± 4% | 12 ± 5% | 9 ± 2% |  |  |  |  |  |  |
| Bacitracin | 4 µg/mL |  |  |  |  |  |  |  |  |  |  |  |
| Flavomycin | 1 µg/mL |  | 4 ± 1% | 20 ± 6% | 22 ± 2% | 54 ± 5% | 98% |  |  |  |  |  |
| Ramoplanin | 2 µg/mL |  | 27 ± 3% | 50 ± 4% | 23 ± 5% |  |  |  |  |  |  |  |
| Vancomycin | 4 µg/mL |  | 34 ± 4% | 49 ± 4% | 17 ± 1% |  |  |  |  |  |  |  |
| chlorobiphenyl vancomycin [CBPV] | 0.25 µg/mL |  | 20 ± 1% | 58 ± 6% | 9 ± 2% |  | 4% | 13 ± 4% |  |  |  |  |
| des-N-methyl-leucyl-vancomycin |  |  |  |  |  |  |  |  | totally loses its antibacterial activity |  |  |  |
| des-N-methylleucyl chlorobiphenyl vancomycin [ΔNCBPV] | 3 µg/mL |  | 14 ± 1% |  |  |  | 52% |  |  | 45 ± 12% | 17 ± 8% | 24 ± 3% |

Reference: article PMC5430839, “Deciphering the mode of action of cell wall-inhibiting antibiotics using metabolic labeling of growing peptidoglycan in Streptococcus pyogenes” (Scientific Reports, 2017)
